Converted amounts (≈) assume the structure as drawn.
Key:
[1] = target: Dual specificity mitogen-activated protein kinase kinase 1 (Homo sapiens) (UniProt Q02750); experiment: Inhibition of MAP2K1 (unknown origin) at 200 nM by ELISA
[2] = target: RAF proto-oncogene serine/threonine-protein kinase (Homo sapiens) (UniProt P04049); experiment: Inhibition of RAF1 (unknown origin) at 200 nM by ELISA
[3] = target: Glycogen synthase kinase-3 beta (Homo sapiens, UniProt P49841); experiment: Inhibition of GSK3beta (unknown origin) by electrophoretic mobility shift assay
[4] = target: Death-associated protein kinase 1 (Homo sapiens, UniProt P53355); experiment: Inhibition of DAPK1 (unknown origin) by electrophoretic mobility shift assay
[5] = target: Receptor-type tyrosine-protein kinase FLT3 (Homo sapiens) (UniProt P36888); experiment: Inhibition of FLT3 (unknown origin) at 200 nM by electrophoretic mobility shift assay
[6] = target: Serine/threonine-protein kinase pim-1 (Homo sapiens, UniProt P11309); experiment: Inhibition of PIM1 (unknown origin) by electrophoretic mobility shift assay
[7] = target: Serine/threonine-protein kinase pim-3 (Homo sapiens, UniProt Q86V86); experiment: Inhibition of PIM3 (unknown origin) using FL-Peptide 1 (5-FAM-AKRRRLSSLRA-COOH) substrate incubated for 2 hrs by electrophoretic mobility shift assay
[8] = Growth inhibition of human PANC1 cells after 72 hrs by CCK-8 assay; type: functional, cell-based; conditions: PANC-1, 72 h
CYP2D6 = CYP2D6 (Homo sapiens, UniProt P10635); experiment: Inhibition of CYP2D6 (unknown origin) at 10 uM; type: ADME
CYP3A4 = CYP3A4 (Homo sapiens, UniProt P08684); experiment: Inhibition of CYP3A4 (unknown origin) at 10 uM; type: ADME
[9] = Aqueous solubility in PBS buffer solution at pH 7.4; type: physicochemical
[10] = Growth inhibition of human MIAPaCa2 cells after 72 hrs by CCK-8 assay; type: functional, cell-based; conditions: MIA PaCa-2, 72 h
[11] = Growth inhibition of human L3.6PL cells after 72 hrs by CCK-8 assay; type: functional
[12] = Growth inhibition of human PCI35 cells after 72 hrs by CCK-8 assay; type: functional, cell-based; conditions: PCI35, 72 h
[13] = Growth inhibition of human PCI66 cells after 72 hrs by CCK-8 assay; type: functional, cell-based; conditions: PCI66, 72 h
[14] = Antitumor activity against human PCI66 cells xenografted in BALB/c nu/nu mouse assessed as reduction in tumor volume at 30 mg/kg, ip qd dosed for 5 days followed by 2 days cessation measured 33 days after tumor inoculation relative to control; type: functional
Mus musculus = experiment: Toxicity in BALB/c nu/nu mouse xenografted with human PCI66 cells assessed as affect on body weight at 30 mg/kg, ip qd dosed for 5 days followed by 2 days cessation measured 33 days after tumor inoculation; type: organism-based; conditions: in vivo, 792 h
[15] = target: Tyrosine-protein kinase CSK (Homo sapiens) (UniProt P41240); experiment: Inhibition of CSK (unknown origin) at 200 nM by electrophoretic mobility shift assay
[16] = target: Ephrin type-B receptor 4 (Homo sapiens) (UniProt P54760); experiment: Inhibition of EPHB4 (unknown origin) at 200 nM by electrophoretic mobility shift assay
[17] = target: Fibroblast growth factor receptor 1 (Homo sapiens) (UniProt P11362); experiment: Inhibition of FGFR1 (unknown origin) at 200 nM by electrophoretic mobility shift assay
[18] = target: Insulin-like growth factor 1 receptor (Homo sapiens) (UniProt P08069); experiment: Inhibition of IGF1R (unknown origin) at 200 nM by electrophoretic mobility shift assay
[19] = target: Hepatocyte growth factor receptor (Homo sapiens) (UniProt P08581); experiment: Inhibition of MET (unknown origin) at 200 nM by electrophoretic mobility shift assay
[20] = target: Angiopoietin-1 receptor (Homo sapiens) (UniProt Q02763); experiment: Inhibition of TIE2 (unknown origin) at 200 nM by electrophoretic mobility shift assay
[21] = target: High affinity nerve growth factor receptor (Homo sapiens) (UniProt P04629); experiment: Inhibition of TRKA (unknown origin) at 200 nM by electrophoretic mobility shift assay
[22] = target: Tyrosine-protein kinase receptor TYRO3 (Homo sapiens) (UniProt Q06418); experiment: Inhibition of TYRO3 (unknown origin) at 200 nM by electrophoretic mobility shift assay
[23] = target: Aurora kinase A (Homo sapiens) (UniProt O14965); experiment: Inhibition of AurA (unknown origin) at 200 nM by electrophoretic mobility shift assay
[24] = target: CDK2/Cyclin A2 (Homo sapiens) (UniProt P24941+P20248); experiment: Inhibition of CDK2/CycA2 (unknown origin) at 200 nM by electrophoretic mobility shift assay; type: protein-complex assay
[25] = target: Serine/threonine-protein kinase Chk1 (Homo sapiens) (UniProt O14757); experiment: Inhibition of CHK1 (unknown origin) at 200 nM by electrophoretic mobility shift assay
[26] = target: Casein kinase I isoform epsilon (Homo sapiens) (UniProt P49674); experiment: Inhibition of CK1 epsilon (unknown origin) at 200 nM by electrophoretic mobility shift assay
[27] = target: Mitogen-activated protein kinase 1 (Homo sapiens) (UniProt P28482); experiment: Inhibition of Erk2 (unknown origin) at 200 nM by electrophoretic mobility shift assay
[28] = target: Inhibitor of nuclear factor kappa-B kinase subunit beta (Homo sapiens) (UniProt O14920); experiment: Inhibition of IKKbeta (unknown origin) at 200 nM by electrophoretic mobility shift assay
[29] = target: Serine/threonine-protein kinase 4 (Homo sapiens) (UniProt Q13043); experiment: Inhibition of MST1 (unknown origin) at 200 nM by electrophoretic mobility shift assay
[30] = target: Mitogen-activated protein kinase 14 (Homo sapiens) (UniProt Q16539); experiment: Inhibition of p38alpha (unknown origin) at 200 nM by electrophoretic mobility shift assay
Homo sapiens = species: Homo sapiens; experiment: Inhibition of p70S6k (unknown origin) at 200 nM by electrophoretic mobility shift assay
[31] = target: 3-phosphoinositide-dependent protein kinase 1 (Homo sapiens) (UniProt O15530); experiment: Inhibition of PDK1 (unknown origin) at 200 nM by electrophoretic mobility shift assay
[32] = target: cAMP-dependent protein kinase catalytic subunit alpha (Homo sapiens) (UniProt P17612); experiment: Inhibition of PKACalpha (unknown origin) at 200 nM by electrophoretic mobility shift assay
[33] = target: Serine/threonine-protein kinase D2 (Homo sapiens) (UniProt Q9BZL6); experiment: Inhibition of PKD2 (unknown origin) at 200 nM by electrophoretic mobility shift assay
[34] = target: MAP kinase-activated protein kinase 2 (Homo sapiens) (UniProt P49137); experiment: Inhibition of MAPKAPK2 (unknown origin) at 200 nM by electrophoretic mobility shift assay

Angiopoietin-1 receptor (Homo sapiens), sequence (Q02763 whole entry): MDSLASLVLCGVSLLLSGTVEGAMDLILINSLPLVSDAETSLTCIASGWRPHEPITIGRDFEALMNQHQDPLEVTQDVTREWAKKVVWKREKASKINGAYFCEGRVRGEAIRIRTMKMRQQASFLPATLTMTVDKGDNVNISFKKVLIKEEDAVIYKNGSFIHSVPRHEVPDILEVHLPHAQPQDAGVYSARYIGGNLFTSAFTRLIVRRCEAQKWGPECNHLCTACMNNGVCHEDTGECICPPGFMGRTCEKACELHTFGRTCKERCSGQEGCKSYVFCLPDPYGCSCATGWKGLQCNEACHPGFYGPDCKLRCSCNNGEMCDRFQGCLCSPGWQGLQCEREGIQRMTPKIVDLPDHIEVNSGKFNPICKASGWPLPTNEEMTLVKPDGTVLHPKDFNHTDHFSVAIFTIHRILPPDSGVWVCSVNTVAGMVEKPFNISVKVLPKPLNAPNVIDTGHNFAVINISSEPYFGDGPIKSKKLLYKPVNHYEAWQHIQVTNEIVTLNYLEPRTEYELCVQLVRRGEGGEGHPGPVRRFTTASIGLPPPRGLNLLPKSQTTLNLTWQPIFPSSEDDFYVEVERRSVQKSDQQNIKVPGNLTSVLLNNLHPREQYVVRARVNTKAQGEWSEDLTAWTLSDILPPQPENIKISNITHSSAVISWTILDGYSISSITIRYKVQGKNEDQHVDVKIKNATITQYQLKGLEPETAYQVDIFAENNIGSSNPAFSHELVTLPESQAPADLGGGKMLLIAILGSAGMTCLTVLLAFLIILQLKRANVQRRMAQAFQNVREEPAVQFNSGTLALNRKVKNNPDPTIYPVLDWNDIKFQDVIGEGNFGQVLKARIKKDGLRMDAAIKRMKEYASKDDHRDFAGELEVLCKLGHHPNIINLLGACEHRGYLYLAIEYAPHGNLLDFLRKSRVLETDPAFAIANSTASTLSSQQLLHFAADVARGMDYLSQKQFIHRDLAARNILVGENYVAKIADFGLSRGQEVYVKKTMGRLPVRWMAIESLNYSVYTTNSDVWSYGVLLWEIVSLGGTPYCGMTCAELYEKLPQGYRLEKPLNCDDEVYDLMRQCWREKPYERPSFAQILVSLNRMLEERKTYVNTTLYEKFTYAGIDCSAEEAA
Serine/threonine-protein kinase Chk1 (Homo sapiens), sequence (O14757 whole entry, canonical isoform): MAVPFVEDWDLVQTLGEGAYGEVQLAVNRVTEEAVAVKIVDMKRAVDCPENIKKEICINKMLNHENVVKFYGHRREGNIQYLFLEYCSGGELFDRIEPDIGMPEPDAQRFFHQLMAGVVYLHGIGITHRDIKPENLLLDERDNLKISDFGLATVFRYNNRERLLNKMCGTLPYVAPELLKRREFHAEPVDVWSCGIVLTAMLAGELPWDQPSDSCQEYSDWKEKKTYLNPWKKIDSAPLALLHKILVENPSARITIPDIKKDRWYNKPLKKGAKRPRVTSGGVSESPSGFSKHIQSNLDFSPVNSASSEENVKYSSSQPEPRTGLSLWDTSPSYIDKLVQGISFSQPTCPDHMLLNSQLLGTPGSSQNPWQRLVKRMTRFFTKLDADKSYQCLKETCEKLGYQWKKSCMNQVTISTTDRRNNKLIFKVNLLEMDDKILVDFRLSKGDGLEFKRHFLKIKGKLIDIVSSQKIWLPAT
Mitogen-activated protein kinase 14 (Homo sapiens), sequence (Q16539 whole entry): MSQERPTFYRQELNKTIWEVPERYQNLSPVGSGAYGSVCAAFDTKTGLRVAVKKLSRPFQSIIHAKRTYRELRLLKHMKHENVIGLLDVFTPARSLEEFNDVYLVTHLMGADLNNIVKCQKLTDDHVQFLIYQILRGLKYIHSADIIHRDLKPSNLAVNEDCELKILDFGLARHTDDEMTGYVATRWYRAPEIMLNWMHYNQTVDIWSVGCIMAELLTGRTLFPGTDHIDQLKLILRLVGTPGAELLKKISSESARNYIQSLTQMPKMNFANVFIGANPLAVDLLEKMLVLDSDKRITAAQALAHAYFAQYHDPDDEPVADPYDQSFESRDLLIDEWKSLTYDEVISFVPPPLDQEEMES
Aurora kinase A (Homo sapiens), sequence (O14965 whole entry): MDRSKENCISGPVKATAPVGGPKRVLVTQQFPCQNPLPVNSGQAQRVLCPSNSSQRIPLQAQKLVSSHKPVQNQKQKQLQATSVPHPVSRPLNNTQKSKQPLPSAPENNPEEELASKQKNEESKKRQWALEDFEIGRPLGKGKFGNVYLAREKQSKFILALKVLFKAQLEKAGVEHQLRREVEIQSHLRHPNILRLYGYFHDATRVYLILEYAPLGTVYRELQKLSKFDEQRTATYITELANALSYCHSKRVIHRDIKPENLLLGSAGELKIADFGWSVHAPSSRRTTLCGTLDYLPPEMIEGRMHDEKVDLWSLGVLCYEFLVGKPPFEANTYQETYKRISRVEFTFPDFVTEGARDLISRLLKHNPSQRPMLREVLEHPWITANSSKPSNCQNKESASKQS
Fibroblast growth factor receptor 1 (Homo sapiens), sequence (P11362 22-822 limits assumed): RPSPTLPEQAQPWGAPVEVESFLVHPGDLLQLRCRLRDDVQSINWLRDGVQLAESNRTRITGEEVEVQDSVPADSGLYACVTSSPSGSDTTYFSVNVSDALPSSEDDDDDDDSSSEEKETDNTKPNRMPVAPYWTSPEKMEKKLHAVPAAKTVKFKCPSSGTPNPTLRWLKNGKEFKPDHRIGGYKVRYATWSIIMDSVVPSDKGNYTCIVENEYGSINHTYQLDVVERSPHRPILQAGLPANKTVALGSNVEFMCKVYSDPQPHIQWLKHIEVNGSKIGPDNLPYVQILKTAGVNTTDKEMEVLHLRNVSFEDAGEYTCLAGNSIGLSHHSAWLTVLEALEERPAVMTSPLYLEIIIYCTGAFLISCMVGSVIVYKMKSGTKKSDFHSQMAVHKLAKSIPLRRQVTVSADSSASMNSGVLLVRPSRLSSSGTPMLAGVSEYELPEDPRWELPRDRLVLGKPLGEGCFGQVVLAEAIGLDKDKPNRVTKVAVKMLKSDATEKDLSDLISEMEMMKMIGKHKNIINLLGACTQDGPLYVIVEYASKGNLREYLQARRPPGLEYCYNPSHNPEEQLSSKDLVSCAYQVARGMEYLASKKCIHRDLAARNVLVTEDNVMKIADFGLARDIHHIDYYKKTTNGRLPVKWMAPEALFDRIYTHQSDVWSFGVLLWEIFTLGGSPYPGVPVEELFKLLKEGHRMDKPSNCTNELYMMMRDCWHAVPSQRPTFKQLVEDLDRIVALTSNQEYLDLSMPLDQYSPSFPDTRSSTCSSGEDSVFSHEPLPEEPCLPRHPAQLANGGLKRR
Receptor-type tyrosine-protein kinase FLT3 (Homo sapiens), sequence (P36888 whole entry): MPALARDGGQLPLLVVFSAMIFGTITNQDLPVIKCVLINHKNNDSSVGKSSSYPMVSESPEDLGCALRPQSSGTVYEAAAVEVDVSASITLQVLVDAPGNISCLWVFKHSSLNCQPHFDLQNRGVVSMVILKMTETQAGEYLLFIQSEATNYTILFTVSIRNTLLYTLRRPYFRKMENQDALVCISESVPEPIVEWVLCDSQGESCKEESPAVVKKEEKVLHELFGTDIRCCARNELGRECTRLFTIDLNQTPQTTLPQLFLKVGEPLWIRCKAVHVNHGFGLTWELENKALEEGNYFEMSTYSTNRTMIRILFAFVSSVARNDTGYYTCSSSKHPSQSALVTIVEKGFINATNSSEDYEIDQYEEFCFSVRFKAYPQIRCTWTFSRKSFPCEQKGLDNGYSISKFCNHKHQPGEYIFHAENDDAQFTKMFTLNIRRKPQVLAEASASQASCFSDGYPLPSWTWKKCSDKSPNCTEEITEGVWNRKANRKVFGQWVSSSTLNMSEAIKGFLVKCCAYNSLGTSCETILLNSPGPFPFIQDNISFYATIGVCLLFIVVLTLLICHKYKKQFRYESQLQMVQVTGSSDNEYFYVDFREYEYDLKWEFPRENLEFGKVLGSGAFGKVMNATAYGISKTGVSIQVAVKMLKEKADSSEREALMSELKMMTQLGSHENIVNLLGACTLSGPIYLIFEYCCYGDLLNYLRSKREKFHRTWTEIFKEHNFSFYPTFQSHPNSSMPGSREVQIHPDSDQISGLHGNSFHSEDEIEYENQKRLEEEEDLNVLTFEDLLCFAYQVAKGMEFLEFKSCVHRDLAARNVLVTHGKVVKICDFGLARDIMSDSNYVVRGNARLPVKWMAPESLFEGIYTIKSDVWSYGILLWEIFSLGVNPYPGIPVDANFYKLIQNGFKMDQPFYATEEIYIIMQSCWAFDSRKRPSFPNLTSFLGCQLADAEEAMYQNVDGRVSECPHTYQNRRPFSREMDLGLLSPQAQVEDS
CYP3A4, sequence (P08684 whole entry): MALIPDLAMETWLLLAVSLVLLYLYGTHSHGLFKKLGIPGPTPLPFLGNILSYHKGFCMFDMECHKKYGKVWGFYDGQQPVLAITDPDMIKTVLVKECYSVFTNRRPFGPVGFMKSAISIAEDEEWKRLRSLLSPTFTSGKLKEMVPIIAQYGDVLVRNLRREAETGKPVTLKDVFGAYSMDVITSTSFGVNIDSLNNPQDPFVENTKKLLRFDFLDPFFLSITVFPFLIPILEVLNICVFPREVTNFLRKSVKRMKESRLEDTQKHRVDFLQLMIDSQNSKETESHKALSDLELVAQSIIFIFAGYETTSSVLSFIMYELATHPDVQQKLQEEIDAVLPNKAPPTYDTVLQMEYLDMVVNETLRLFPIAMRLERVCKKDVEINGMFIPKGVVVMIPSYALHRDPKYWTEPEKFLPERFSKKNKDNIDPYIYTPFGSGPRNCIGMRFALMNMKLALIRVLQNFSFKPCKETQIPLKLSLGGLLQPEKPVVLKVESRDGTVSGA

Compound	inhibition [1]	inhibition [2]	inhibition [5]	IC50 [7]	IC50 [8]	inhibition at 10 µM (CYP2D6)	inhibition at 10 µM (CYP3A4)	solubility [9]	inhibition [15]	inhibition [16]	inhibition [17]	inhibition [18]	inhibition [19]	inhibition [20]	inhibition [21]	inhibition [22]	inhibition [23]	inhibition [24]	inhibition [25]	inhibition [26]	also measured
COc1ccc2c(c1C(C)N1CCNCC1)O/C(=C\c1n[nH]c3ncccc13)C2=O (stereo unspecified)	-0.4%	-9.9%	68%	0.0025 µM	4 µM	14%	< 1%	558 µM (≈ 226 µg/mL)	0.9%	9.4%	3.1%	1.1%	0.5%	0.8%	10.3%	3.5%	-0.4%	13.7%	4.1%	-0.5%	IC50 [3]: 0.0061 µM; IC50 [4]: 0.012 µM; IC50 [6]: 0.0019 µM; IC50 [10]: 3.5 µM; IC50 [11]: 6.3 µM; IC50 [12]: 5.1 µM; IC50 [13]: 3.8 µM; inhibition in vivo at 30 mg/kg [14]: 52.5%; Activity (Mus musculus): Non-toxic; inhibition [27]: 0.2%; inhibition [28]: -2.8%; inhibition [29]: -7.4%; inhibition [30]: -1%; inhibition (Homo sapiens): 47.3%; inhibition [31]: 0.2%; inhibition [32]: 18.4%; inhibition [33]: 13.1%
COc1ccc2c(c1CN1CCNCC1)O/C(=C\c1n[nH]c3ncccc13)C2=O	-7.7%	11.3%	55.5%	0.0018 µM	5.6 µM	23%	39%	182 µM (≈ 71.2 µg/mL)	-5.8%	-3.1%	-4%	-3%	-2.3%	0%	1.8%	-2.7%	5.1%	28.2%	9.2%	3.1%	inhibition [27]: 4.9%; inhibition [28]: 4.1%; inhibition [34]: -1.2%; inhibition [29]: -2.3%; inhibition [30]: -1.8%; inhibition (Homo sapiens): 66.5%; inhibition [31]: -3.7%; inhibition [32]: 4%; inhibition [33]: 31.6%
